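Cultured in 96-well plates, cells were exposed to test compound for 48 hours across five concentrations. GI50 marks 50% less growth. TGI: total growth inhibition.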
Columns and labels:
Experiment in all cases: NCI anticancer screen, dose series, 48 h
ACHN renal = system: ACHN renal
LOX IMVI melanoma = system: LOX IMVI melanoma
MCF7 breast = system: MCF7 breast
MDA-MB-435 = system: MDA-MB-435
PC-3 prostate = system: PC-3 prostate
RXF 393 renal = system: RXF 393 renal
SNB-19 CNS = system: SNB-19 CNS
UACC-257 melanoma = system: UACC-257 melanoma
UACC-62 melanoma = system: UACC-62 melanoma
UO-31 renal = system: UO-31 renal

Row | SMILES | GI50 (ACHN renal) | TGI (ACHN renal) | GI50 (LOX IMVI melanoma) | TGI (LOX IMVI melanoma) | GI50 (MCF7 breast) | TGI (MCF7 breast) | GI50 (MDA-MB-435) | TGI (MDA-MB-435) | GI50 (PC-3 prostate) | TGI (PC-3 prostate) | GI50 (RXF 393 renal) | TGI (RXF 393 renal) | GI50 (SNB-19 CNS) | TGI (SNB-19 CNS) | GI50 (UACC-257 melanoma) | TGI (UACC-257 melanoma) | GI50 (UACC-62 melanoma) | TGI (UACC-62 melanoma) | GI50 (UO-31 renal) | TGI (UO-31 renal)
1 | CS(=O)(=O)Nc1ccc(-c2ccc3c(NC(=O)C4CC4)n[nH]c3c2)cc1 | > 25 µM | > 25 µM | > 25 µM | > 25 µM | > 23.2 µM | > 25 µM | > 25 µM | > 25 µM | > 25 µM | > 25 µM | > 17.7 µM | > 25 µM | > 25 µM | > 25 µM | > 25 µM | > 25 µM | 22.7 µM | > 25 µM | > 25 µM | > 25 µM
2 | CCCCCC(=O)Oc1ccc(/C(=C(\C)c2ccc(OC)cc2)c2ccc(OCCN3CCCCC3)cc2)cc1 | 10.7 µM | 22.6 µM | 2.19 µM | 5.22 µM | 0.726 µM | 14.4 µM | 7.93 µM | 20.7 µM | 5.65 µM | 18.7 µM | 1.8 µM | 9.52 µM | 11.4 µM | 24.8 µM | 2.31 µM | 5.83 µM | 7.19 µM | 20 µM | 3 µM | 14.4 µM

Reference: PubChem BioAssay (NCI)
